Legend:
Format in all cases: in vivo
[1] = system: Chemotherapeutic agent-caused diarrhea models of Balb/c mice; assay: Examples 1-229 (Table 3): oral CDK inhibitor, relief of diarrhea caused by a chemotherapeutic agent;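 note: percent of treated mice whose diarrhea grade fell below chemotherapy-group average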
[2] = system: Chemotherapeutic agent-caused constipation models of Balb/c mice; assay: Examples 272-342 (Table 5): oral CDK inhibitor, relief of constipation caused by a chemotherapeutic agent;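 note: percent of treated mice relieved versus chemotherapy group by feces reduction rate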
Outline: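 Feces reduction rate (%) = (control − treated)/control × 100%, based on the 3-hour feces amount recorded each day. Groups of 10 Balb/c mice received solvent, chemotherapeutic agent alone, or an oral CDK inhibitor before the chemotherapeutic agent.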

[3] = system: constipation caused by a chemotherapeutic agent in Balb/c mice; assay: Examples 406-443 (Table 8): various administration modes of the CDK inhibitor, relief of constipation caused by a chemotherapeutic agent;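 for Relative remission rate of oral administration: percent of treated mice relieved versus chemotherapy group by feces reduction rate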;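 for Relative remission rate of other administration mode: percent of treated mice relieved versus chemotherapy group by feces reduction rate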
Outline: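 Balb/c mice (10 per group) received the CDK inhibitor orally, intravenously via the tail vein, intraperitoneally, intramuscularly, or topically on shaved abdominal skin, followed by a chemotherapeutic agent; vehicle groups served as controls. Feces amount over 3 h was recorded daily. Feces reduction rate was calculated relative to the control group.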

Question: `CN(C)C(=O)c1cc2cnc(Nc3ccc(N4CCNCC4)cn3)nc2n1C1CCCC1` [Ribociclib] was tested. Which “Relative remission rate (%)” value ([1]; Example 45, Fluorouracil (5-Fu) intravenous injection 175 mg/kg single, CDK inhibitor oral 200 mg/kg single 0.5 h before, cycle 8 days) did it give?
Answer: Its value is 40%.

Question: And the “Relative remission rate (%)” value ([1]; Example 113, Irinotecan (CPT-11) oral administration 300 mg/kg single, CDK inhibitor oral 100 mg/kg single 24 h before, cycle 11 days)?
Answer: The value was 60%.

Question: What about the “Relative remission rate (%)” value ([1]; Example 167, Docetaxel (DTX) intravenous injection 10 mg/kg single, CDK inhibitor oral 200 mg/kg single 9 h before, cycle 8 days) of the same compound?
Answer: Its value is 80%.

Question: What about the “Relative remission rate (%)” value ([1]; Example 229, Etoposide 60 mg/kg and carboplatin 5 mg/kg intraperitoneal injection single, CDK inhibitor oral 200 mg/kg single, 12 h before, 10 days) of the same compound?
Answer: Its value is 50%.

Question: And the Relative remission rate ([2]; Example 294, Fluorouracil (5-Fu) intravenous injection 225 mg/kg single, CDK inhibitor oral 150 mg/kg single, 0.5 h before, cycle 7 days)?
Answer: The Relative remission rate was 50%.

Question: And the Relative remission rate ([2]; Example 302, Oxaliplatin intravenous injection 20 mg/kg single, CDK inhibitor oral 150 mg/kg single, 1 h before, cycle 8 days)?
Answer: The Relative remission rate was 50%.

Question: What about the Relative remission rate ([2]; Example 310, Irinotecan (CPT-11) oral administration 300 mg/kg single, CDK inhibitor oral 100 mg/kg single, 20 h before, cycle 11 days) of the same compound?
Answer: The Relative remission rate was 50%.

Question: What about the Relative remission rate ([2]; Example 325, Gemcitabine and paclitaxel intravenous injection 60 (G) 10 (P) mg/kg single, CDK inhibitor oral 125 mg/kg single, 0.5 h before, cycle 8 days) of the same compound?
Answer: The Relative remission rate was 50%.

Question: And the Relative remission rate ([2]; Example 336, Methotrexate (MTX) intravenous injection 300 mg/kg single, CDK inhibitor oral 125 mg/kg single, 0.5 h before, cycle 7 days)?
Answer: Its Relative remission rate is 40%.

Question: What about the Relative remission rate ([2]; Example 337, Methotrexate (MTX) intravenous injection 300 mg/kg single, CDK inhibitor oral 125 mg/kg single, 4 h before, cycle 7 days) of the same compound?
Answer: The Relative remission rate was 40%.

Question: What about the Relative remission rate ([2]; Example 338, Methotrexate (MTX) intravenous injection 300 mg/kg single, CDK inhibitor oral 125 mg/kg single, 8 h before, cycle 7 days) of the same compound?
Answer: Its Relative remission rate is 50%.

Question: What about the Relative remission rate ([2]; Example 339, Methotrexate (MTX) intravenous injection 300 mg/kg single, CDK inhibitor oral 125 mg/kg single, 12 h before, cycle 7 days) of the same compound?
Answer: The Relative remission rate was 30%.

Question: And the Relative remission rate ([2]; Example 340, Methotrexate (MTX) intravenous injection 300 mg/kg single, CDK inhibitor oral 125 mg/kg single, 24 h before, cycle 7 days)?
Answer: Its Relative remission rate is 60%.

Question: What about the Relative remission rate ([2]; Example 341, Methotrexate (MTX) intravenous injection 300 mg/kg single, CDK inhibitor oral 125 mg/kg single, 48 h before, cycle 7 days) of the same compound?
Answer: Its Relative remission rate is 0%.

Question: What about the “Relative remission rate of other administration mode” value ([3]; Example 424, Carboplatin intraperitoneal injection 120 mg/kg single, CDK inhibitor intraperitoneal injection 200 mg/kg single, 0.5 h before, cycle 10 days) of the same compound?
Answer: Its value is 10%.

Question: And the “Relative remission rate of oral administration” value ([3]; Example 424, Carboplatin intraperitoneal injection 120 mg/kg single, CDK inhibitor oral 200 mg/kg single, 0.5 h before, cycle 10 days)?
Answer: Its value is 20%.

Question: What about the “Relative remission rate of other administration mode” value ([3]; Example 425, Carboplatin intraperitoneal injection 120 mg/kg single, CDK inhibitor intraperitoneal injection 200 mg/kg single, 4 h before, cycle 10 days) of the same compound?
Answer: The value was 10%.

Question: And the “Relative remission rate of oral administration” value ([3]; Example 425, Carboplatin intraperitoneal injection 120 mg/kg single, CDK inhibitor oral 200 mg/kg single, 4 h before, cycle 10 days)?
Answer: The value was 30%.

Question: And the “Relative remission rate of other administration mode” value ([3]; Example 426, Carboplatin intraperitoneal injection 120 mg/kg single, CDK inhibitor intraperitoneal injection 200 mg/kg single, 8 h before, cycle 10 days)?
Answer: The value was 20%.

Question: And the “Relative remission rate of oral administration” value ([3]; Example 426, Carboplatin intraperitoneal injection 120 mg/kg single, CDK inhibitor oral 200 mg/kg single, 8 h before, cycle 10 days)?
Answer: The value was 50%.

Question: And the “Relative remission rate of other administration mode” value ([3]; Example 427, Carboplatin intraperitoneal injection 120 mg/kg single, CDK inhibitor intraperitoneal injection 200 mg/kg single, 12 h before, cycle 10 days)?
Answer: The value was 20%.

Question: And the “Relative remission rate of oral administration” value ([3]; Example 427, Carboplatin intraperitoneal injection 120 mg/kg single, CDK inhibitor oral 200 mg/kg single, 12 h before, cycle 10 days)?
Answer: The value was 50%.

Question: What about the “Relative remission rate of other administration mode” value ([3]; Example 428, Carboplatin intraperitoneal injection 120 mg/kg single, CDK inhibitor intraperitoneal injection 200 mg/kg single, 24 h before, cycle 10 days) of the same compound?
Answer: The value was 10%.

Question: What about the “Relative remission rate of oral administration” value ([3]; Example 428, Carboplatin intraperitoneal injection 120 mg/kg single, CDK inhibitor oral 200 mg/kg single, 24 h before, cycle 10 days) of the same compound?
Answer: Its value is 40%.

Question: And the “Relative remission rate of other administration mode” value ([3]; Example 435, Gemcitabine oral administration 300 mg/kg single, CDK inhibitor local administration 100 mg/kg single, 24 h before, cycle 8 days)?
Answer: Its value is 20%.

Question: What about the “Relative remission rate of oral administration” value ([3]; Example 435, Gemcitabine oral administration 300 mg/kg single, CDK inhibitor oral 100 mg/kg single, 24 h before, cycle 8 days) of the same compound?
Answer: The value was 50%.

Question: And the “improvement of constipation by oral administration, intraperitoneal injection, intramuscular injection, local administration” value ([3]; constipation caused by doxorubicin, etoposide, etoposide plus cisplatin, carboplatin, gemcitabine, gemcitabine plus carboplatin, under certain conditions, oral most significant)?
Answer: Its value is “can significantly improve constipation”.
